# In patent US10925858B2, “S-nitrosoglutathione (GSNO) and GSNO reductase inhibitors for use in therapy” (MUSC FOUNDATION FOR RESEARCH DEVELOPMENT, priority 2017, dated 2021):
# Tests used:
# [1] = tested on: tight junction proteins (ZO-1, Occludin, Claudin-5); test: Western blotting, protein expression of tight junction proteins in isolated microvessels of diabetic mice; format: in vivo
# Description: Male laca mice weighing between 28-32 g were procured from the Central Animal House, Panjab University, Chandigarh. The animals were acclimatized and were fed with standard pellet diet and water ad libitum. The experimental protocols were approved by the Institutional Ethics Committee and were conducted according to Indian National Science Academy (INSA) guidelines for the use and care of experimental animals. The animals were divided into four groups: (i) Control animals received phosphate buffered saline (PBS) throughout the study; (ii) Control+GSNO animals were administered with GSNO 100 μg/kg body weight orally, dissolved in PBS after every 24 h for 8 weeks; (iii) Diabetic animals were injected with STZ at a dose of 40 mg/kg body weight intraperitoneally for 5 days dissolved in 0.1 mol/L citrate buffer, pH 4.5 and Diabetic+GSNO mice were administered GSNO 100 μg/kg body weight orally dissolved in PBS after every 24 h for 8 weeks after the induction of diabetes. Animals were assessed weekly for development of diabetic encephalopathy in terms of memory deficits. All experimental procedures were done on mice at the end of study. The microvessels were isolated by the method described by Brooks et al., (2005). Brain tissue was homogenized in microisolation buffer (103 mM NaCl, 4.7 mM KCl, 2.5 mM CaCb, 1.2 mM KH2PO4, 1.2 mM MgSO4, 15 mM HEPES, 2.5 mM NaHCO3, 10 mM D-glucose, 1 mM sodium pyruvate and 10 g/L dextran (64,000 mol wt), pH 7.4) and equal amount of 26% (w/v) dextran was added. The sample was then centrifuged at 5600 g for 10 min and pellets obtained were resuspended in microisolation buffer. Then the suspension was filtered through 70 μm filter (BD Biosciences, Gurgaon, India). The filtered homogenates were then centrifuged at 3000 g for 10 min at 4° C. and the pellet was obtained. Protein expression of tight junction proteins and cell adhesion molecules i.e. ZO-1, occludin, Claudin-5, ICAM-1 and VCAM-1 was studied in microvessels obtained from cortex and hippocampus regions of the brain (Towbin et al., 1992). […]
# cerebral microvessels = test: Transmission electron microscopy, ultrastructure of microvessels of diabetic mice; format: in vivo; settings: cortex and hippocampus, GSNO supplemented diabetic animals, 8 weeks
# Description: Male laca mice weighing between 28-32 g were procured from the Central Animal House, Panjab University, Chandigarh. The animals were acclimatized and were fed with standard pellet diet and water ad libitum. The experimental protocols were approved by the Institutional Ethics Committee and were conducted according to Indian National Science Academy (INSA) guidelines for the use and care of experimental animals. The animals were divided into four groups: (i) Control animals received phosphate buffered saline (PBS) throughout the study; (ii) Control+GSNO animals were administered with GSNO 100 μg/kg body weight orally, dissolved in PBS after every 24 h for 8 weeks; (iii) Diabetic animals were injected with STZ at a dose of 40 mg/kg body weight intraperitoneally for 5 days dissolved in 0.1 mol/L citrate buffer, pH 4.5 and Diabetic+GSNO mice were administered GSNO 100 μg/kg body weight orally dissolved in PBS after every 24 h for 8 weeks after the induction of diabetes. Animals were assessed weekly for development of diabetic encephalopathy in terms of memory deficits. All experimental procedures were done on mice at the end of study. Transmission electron microscopy was carried out by the method described by Gao et al., (2005). […]
# [2] = microvessels of cortex and hippocampus, diabetic mice + GSNO 100 μg/kg oral 8 weeks
smiles,measurement,setting,value
"N[C@@H](CCC(=O)N[C@@H](CSN=O)C(=O)NCC(=O)O)C(=O)O [GSNO, S-nitrosoglutathione]",protein expression of claudin-5,[1]; GSNO treated diabetic animals,no significant change
same,increase of protein expression of ZO-1,[1]; [2],~70%
same,increase of protein expression of occludin,[1]; [2],~60%
same,ultrastructure of microvessels,cerebral microvessels,improved the ultrastructure of the damaged microvessels
